Numbers after ± are expanded uncertainties.

The conditions of data set [1]: Liquid; for mass density: 293.15 K, 101.33 kPa.
Data set [2] in a line: refractive index (Na D-line) (dimensionless). The following applies: 293.15 K; 101.33 kPa; Liquid; Standard Abbe refractometry.

In general, mass density refers to the mass of a sample divided by its volume. By vapor or sublimation pressure is commonly meant the equilibrium pressure above the liquid or solid. What is called refractive index is a measure of how strongly the sample bends light. `CCCCC(C)=O` [2-hexanone]: the mass density in data set [1] is reported as 811.2 ± 0.8 kg/m3. The “vapor or sublimation pressure” value is 26.66 ± 0.27 kPa in data set [1] (359.51 K), 53.33 ± 0.32 kPa in data set [1] (379.52 K), 79.99 ± 0.45 kPa in data set [1] (392.57 K) and 101.32 ± 0.53 kPa in data set [1] (400.69 K). The refractive index in data set [2] worked out at 1.4008 ± 0.0007.

Regarding `CCCCCCCCC` [nonane], the mass density in data set [1] was determined as 717.6 ± 0.7 kg/m3. Moreover, the “vapor or sublimation pressure” value in data set [1] (379.88 K) is on record as 26.66 ± 0.25 kPa; in data set [1] (401.28 K), 53.33 ± 0.3 kPa; in data set [1] (415.26 K), 79.99 ± 0.42 kPa; in data set [1] (423.97 K) it was 101.32 ± 0.49 kPa. Moreover, the refractive index in data set [2] stood at 1.4055 ± 0.0007.

`CCCCCO` [pentan-1-ol]: in data set [1], the mass density is given as 814.5 ± 0.8 kg/m3. Further, the “vapor or sublimation pressure” value stood at 26.66 ± 0.31 kPa in data set [1] (375.63 K), 53.33 ± 0.37 kPa in data set [1] (392.7 K), 79.99 ± 0.53 kPa in data set [1] (403.8 K) and 101.32 ± 0.61 kPa in data set [1] (410.79 K). Also, the refractive index in data set [2] is given as 1.4098 ± 0.0007.

The values above are taken from the NIST ThermoML archive (doi:10.1021/je0502905).
